Earlier results as cited in US20130028962A1, “Triggered Cargo Release from Nanoparticle Stabilized Liposomes” (THE REGENTS OF THE UNIVERSITY OF CALIFORNIA, priority 2010, published 2013).

Tested on: MRSA bacteria
Details: against MRSA bacteria

CN[C@H](CC(C)C)C(=O)N[C@H]1C(=O)N[C@@H](CC(N)=O)C(=O)N[C@H]2C(=O)N[C@H]3C(=O)N[C@H](C(=O)N[C@H](C(=O)O)c4cc(O)cc(O)c4-c4cc3ccc4O)[C@H](O)c3ccc(c(Cl)c3)Oc3cc2cc(c3O[C@@H]2O[C@H](CO)[C@@H](O)[C@H](O)[C@H]2O[C@H]2C[C@](C)(N)[C@H](O)[C@H](C)O2)Oc2ccc(cc2Cl)[C@H]1O [vancomycin]
minimal inhibitory concentration (MIC): about 2 μg/mL
